Results taken from PubChem BioAssay (NCI).
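A five-concentration, 48-hour dose response in 96-well plates underlies each endpoint, interpolated linearly between surrounding concentrations. The concentration for full growth arrest is given as TGI.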

How the values were obtained:
Experiment in all cases: growth of human tumour cells (NCI), 48 h
HOP-62 NSCLC = tested on: HOP-62 NSCLC
A549 NSCLC = tested on: A549 NSCLC
SW-620 colon = tested on: SW-620 colon
SNB-19 CNS = tested on: SNB-19 CNS
SF-295 CNS = tested on: SF-295 CNS
OVCAR-4 ovarian = tested on: OVCAR-4 ovarian
MDA-MB-231 breast = tested on: MDA-MB-231 breast
EKVX NSCLC = tested on: EKVX NSCLC
SK-MEL-5 melanoma = tested on: SK-MEL-5 melanoma
MDA-MB-435 = tested on: MDA-MB-435
NCI-H460 lung = tested on: NCI-H460 lung
NCI-H522 lung = tested on: NCI-H522 lung
SR leukemia = tested on: SR leukemia
ACHN renal = tested on: ACHN renal
UO-31 renal = tested on: UO-31 renal
UACC-62 melanoma = tested on: UACC-62 melanoma
TK-10 renal = tested on: TK-10 renal
SF-539 CNS = tested on: SF-539 CNS
LOX IMVI melanoma = tested on: LOX IMVI melanoma
NCI-H226 lung = tested on: NCI-H226 lung
MCF7 breast = tested on: MCF7 breast
BT-549 breast = tested on: BT-549 breast
IGROV1 ovarian = tested on: IGROV1 ovarian
OVCAR-3 ovarian = tested on: OVCAR-3 ovarian
M14 melanoma = tested on: M14 melanoma
SF-268 CNS = tested on: SF-268 CNS
MOLT-4 leukemia = tested on: MOLT-4 leukemia
KM12 colon = tested on: KM12 colon
U251 CNS = tested on: U251 CNS
786-0 renal = tested on: 786-0 renal
MDA-N = tested on: MDA-N
RPMI-8226 leukemia = tested on: RPMI-8226 leukemia
HS 578T breast = tested on: HS 578T breast
CCRF-CEM leukemia = tested on: CCRF-CEM leukemia
NCI/ADR-RES ovarian = tested on: NCI/ADR-RES ovarian
CAKI-1 renal = tested on: CAKI-1 renal
MALME-3M melanoma = tested on: MALME-3M melanoma
K-562 leukemia = tested on: K-562 leukemia
HCT-116 colon = tested on: HCT-116 colon
COLO 205 colon = tested on: COLO 205 colon
T-47D breast = tested on: T-47D breast
SNB-75 CNS = tested on: SNB-75 CNS
SK-MEL-2 melanoma = tested on: SK-MEL-2 melanoma
PC-3 prostate = tested on: PC-3 prostate
A498 renal = tested on: A498 renal
SK-OV-3 ovarian = tested on: SK-OV-3 ovarian
UACC-257 melanoma = tested on: UACC-257 melanoma
HCT-15 colon = tested on: HCT-15 colon
OVCAR-5 ovarian = tested on: OVCAR-5 ovarian
OVCAR-8 ovarian = tested on: OVCAR-8 ovarian
NCI-H23 lung = tested on: NCI-H23 lung
HT29 colon = tested on: HT29 colon
RXF 393 renal = tested on: RXF 393 renal
HOP-92 NSCLC = tested on: HOP-92 NSCLC
SK-MEL-28 melanoma = tested on: SK-MEL-28 melanoma
HL-60(TB) leukemia = tested on: HL-60(TB) leukemia
HCC-2998 colon = tested on: HCC-2998 colon
SN12C renal = tested on: SN12C renal
DU-145 prostate = tested on: DU-145 prostate

Measured: TGI

CCOC(=O)c1nc2ccc(C(F)(F)F)cc2nc1NCc1ccc(OC)cc1
not listed: SK-MEL-28 melanoma | HL-60(TB) leukemia | HCC-2998 colon | SN12C renal | DU-145 prostate
> 100 µM: all other assays above

c1ccc([P+](CCSCCSCC[P+](c2ccccc2)(c2ccccc2)c2ccccc2)(c2ccccc2)c2ccccc2)cc1
not listed: NCI-H522 lung | SR leukemia | LOX IMVI melanoma | RPMI-8226 leukemia | CCRF-CEM leukemia | CAKI-1 renal | MALME-3M melanoma | PC-3 prostate
> 100 µM: all other assays above
